Results: patent EP0034471A1, “Piperidinoquinazolines and a process for the preparation thereof” (ORION-YHTYMÄ OY, priority 1980, dated 1981)
Where a name gives a salt, the structure may show the parent alone.

Columns and labels:
[1] = system: Spontaneously hypertensive rats of the Okamoto-Aoki strain; assay: Blood pressure lowering after oral administration in conscious spontaneously hypertensive rats (tail cuff, systolic pressure); assay type: in vivo; conditions: for The decrease of the blood pressure (mmHg) induced by the dose of 0.5 µmol/rat p.o. 1h: 1 hour after administration; for The decrease of the blood pressure (mmHg) induced by the dose of 0.5 µmol/rat p.o. 2h: 2 hours after administration; for The decrease of the blood pressure (mmHg) induced by the dose of 0.5 µmol/rat p.o. 5h: 5 hours after administration
[2] = system: male Wistar rats; assay: Blood pressure lowering after intravenous administration in urethane-anaesthetised rats (mean arterial pressure, femoral artery); assay type: in vivo; conditions: maximal decrease of the blood pressure
Protocol: The effect of the compounds when administered intravenously was studied with male Wistar rats, 240-290 g,which were anaesthetised with urethane (1.5 g/kg intraperitoneally). A heating pad which is controlled by a thermostate connected to the colonic thermistor probe was placed underneath the rats to keep the body temperature at' 38°C. The trachea was cannulated with a polyethylene tube and the rats were allowed to breathe spontaneously. A femoral vein was cannulated for intravenous injections of drugs. […] The pressure . signals were amplified with a pressure conditioner (HP […]). The mean arterial pressure was recorded on paper with a . chart recorder. […] A dose of 0.1 μmol/kg was injected intravenously and the maximal decrease of the blood pressure (mmHg) was measured.

COc1cc2nc(N3CCC(C(=O)OCC(C)(C)C)CC3)nc(N)c2cc1OC.Cl [neopentyloxy, 2-(4-neopentyloxycarbonylpiperidino)-4-amino-6,7-dimethoxyquinazoline hydrochloride]
The decrease of the blood pressure (mmHg) induced by the dose of 0.5 µmol/rat p.o. 1h [1]: 22 mmHg | The decrease of the blood pressure (mmHg) induced by the dose of 0.5 µmol/rat p.o. 2h [1]: 21 mmHg | The decrease of the blood pressure (mmHg) induced by the dose of 0.5 µmol/rat p.o. 5h [1]: 21 mmHg | The decrease of the blood pressure (mmHg) induced by the dose of 0.1 µmol/kg i.v. [2]: 44 mmHg

COc1cc2nc(N3CCC(C(=O)N4CCCCC4)CC3)nc(N)c2cc1OC [piperidino, 2-(4-piperidinocarbonylpiperidino)-4-amino-6,7-dimethoxyquinazoline]
The decrease of the blood pressure (mmHg) induced by the dose of 0.5 µmol/rat p.o. 1h [1]: 25 mmHg | The decrease of the blood pressure (mmHg) induced by the dose of 0.5 µmol/rat p.o. 2h [1]: 22 mmHg | The decrease of the blood pressure (mmHg) induced by the dose of 0.5 µmol/rat p.o. 5h [1]: 17 mmHg | The decrease of the blood pressure (mmHg) induced by the dose of 0.1 µmol/kg i.v. [2]: 32 mmHg

CCN(CC)C(=O)C1CCN(c2nc(N)c3cc(OC)c(OC)cc3n2)CC1 [A(R = diethylamino), 2-(4-diethylaminocarbonylpiperidino) 4- .amino-6,7-dimethoxyquinazoline, reference compound]
The decrease of the blood pressure (mmHg) induced by the dose of 0.5 µmol/rat p.o. 1h [1]: 24 mmHg | The decrease of the blood pressure (mmHg) induced by the dose of 0.5 µmol/rat p.o. 2h [1]: 16 mmHg | The decrease of the blood pressure (mmHg) induced by the dose of 0.5 µmol/rat p.o. 5h [1]: 10 mmHg | The decrease of the blood pressure (mmHg) induced by the dose of 0.1 µmol/kg i.v. [2]: 37 mmHg

COc1cc2nc(N3CCN(C(=O)c4ccco4)CC3)nc(N)c2cc1OC [prazosin, 2-(4-(2-furoyl)-piperazin-l-yl)-4-amino-6,7-dimethoxyquinazoline, reference compound]
The decrease of the blood pressure (mmHg) induced by the dose of 0.5 µmol/rat p.o. 1h [1]: 26 mmHg | The decrease of the blood pressure (mmHg) induced by the dose of 0.5 µmol/rat p.o. 2h [1]: 31 mmHg | The decrease of the blood pressure (mmHg) induced by the dose of 0.5 µmol/rat p.o. 5h [1]: 24 mmHg | The decrease of the blood pressure (mmHg) induced by the dose of 0.1 µmol/kg i.v. [2]: 36 mmHg

COc1cc2nc(N3CCC(C(=O)NC(C)(C)C)CC3)nc(N)c2cc1OC.Cl [t-butylamino, 2-(4-tert-butylcarbamoylpiperidino)-4-amino-6,7-dimethoxyquinazoline hydrochloride]
The decrease of the blood pressure (mmHg) induced by the dose of 0.5 µmol/rat p.o. 1h [1]: 15 mmHg | The decrease of the blood pressure (mmHg) induced by the dose of 0.5 µmol/rat p.o. 2h [1]: 25 mmHg | The decrease of the blood pressure (mmHg) induced by the dose of 0.5 µmol/rat p.o. 5h [1]: 28 mmHg | The decrease of the blood pressure (mmHg) induced by the dose of 0.1 µmol/kg i.v. [2]: 28 mmHg

COc1cc2nc(N3CCC(C(=O)N4CCCCC4C)CC3)nc(N)c2cc1OC.Cl (stereo not shown) [2-methylpiperidino, 2-(4-(2-methylpiperidino)carbonylpiperidino)-4-amino-6,7-dimethoxyquinazoline hydrochloride]
The decrease of the blood pressure (mmHg) induced by the dose of 0.5 µmol/rat p.o. 1h [1]: 15 mmHg | The decrease of the blood pressure (mmHg) induced by the dose of 0.5 µmol/rat p.o. 2h [1]: 25 mmHg | The decrease of the blood pressure (mmHg) induced by the dose of 0.5 µmol/rat p.o. 5h [1]: 28 mmHg | The decrease of the blood pressure (mmHg) induced by the dose of 0.1 µmol/kg i.v. [2]: 31 mmHg

COc1cc2nc(N3CCC(C(=O)N4CCCCCCC4)CC3)nc(N)c2cc1OC [1-azacyclooctyl, 2-(4-(azacyclooct-1-yl-carbonyl)piperidino-4-amino-6,7-dimethoxyquinazoline hydrochloride]
The decrease of the blood pressure (mmHg) induced by the dose of 0.5 µmol/rat p.o. 1h [1]: 18 mmHg | The decrease of the blood pressure (mmHg) induced by the dose of 0.5 µmol/rat p.o. 2h [1]: 23 mmHg | The decrease of the blood pressure (mmHg) induced by the dose of 0.5 µmol/rat p.o. 5h [1]: 29 mmHg | The decrease of the blood pressure (mmHg) induced by the dose of 0.1 µmol/kg i.v. [2]: 23 mmHg

COc1cc2nc(N3CCC(C(N)=O)CC3)nc(N)c2cc1OC.Cl [amino, 2-(4-carbamoylpiperidino)-4-amino-6,7-dimethoxyquinazoline hydrochloride]
The decrease of the blood pressure (mmHg) induced by the dose of 0.5 µmol/rat p.o. 1h [1]: 20 mmHg | The decrease of the blood pressure (mmHg) induced by the dose of 0.5 µmol/rat p.o. 2h [1]: 22 mmHg | The decrease of the blood pressure (mmHg) induced by the dose of 0.5 µmol/rat p.o. 5h [1]: 20 mmHg | The decrease of the blood pressure (mmHg) induced by the dose of 0.1 µmol/kg i.v. [2]: 27 mmHg

COc1cc2nc(N3CCC(C(=O)N4CCOCC4)CC3)nc(N)c2cc1OC [B(R = morpholino), 2-(4-morpholinocarbonylpiperidino)-4-amino-6,7-dimethoxyquinazoline, reference compound]
The decrease of the blood pressure (mmHg) induced by the dose of 0.5 µmol/rat p.o. 1h [1]: 7 mmHg | The decrease of the blood pressure (mmHg) induced by the dose of 0.5 µmol/rat p.o. 2h [1]: 5 mmHg | The decrease of the blood pressure (mmHg) induced by the dose of 0.5 µmol/rat p.o. 5h [1]: -2 mmHg | The decrease of the blood pressure (mmHg) induced by the dose of 0.1 µmol/kg i.v. [2]: 30 mmHg

COc1cc2nc(N3CCC(C(=O)N4CCCCCC4)CC3)nc(N)c2cc1OC [1-azacycloheptyl, 2-(4-(azacyclohept-1-yl-carbonyl)piperi-dino)-4-amino-6,7-dimethoxyquinazoline hydrochloride]
The decrease of the blood pressure (mmHg) induced by the dose of 0.5 µmol/rat p.o. 1h [1]: 23 mmHg | The decrease of the blood pressure (mmHg) induced by the dose of 0.5 µmol/rat p.o. 2h [1]: 27 mmHg | The decrease of the blood pressure (mmHg) induced by the dose of 0.5 µmol/rat p.o. 5h [1]: 25 mmHg | The decrease of the blood pressure (mmHg) induced by the dose of 0.1 µmol/kg i.v. [2]: 47 mmHg
